Assay results taken from patent US12558342B2, “2-[2-({12,12-dimethyl-4-oxo-6-phenyl-3,11-dioxatricyclo[8.4.0.0,2,7]tetradeca-1,5,7,9-tetraen-8-yl}oxy)acetamido]benzamide and derivatives as inhibitor of clock:bmal1 interaction for the treatment of circadian rhythm diseases and disorders” (KOC UNIVERSITESI, priority 2019, dated 2026).

System: wild type MDA MB231 cells
Test: Bmal1::dluc rhythm in wild type MDA MB231 cells
Format: cell-based
Method: We used Bmal1::dluc U2-OS and Per1::dluc NIH 3T3, and continuously monitored the bioluminescence to record circadian rhythm. This experiment was performed in 96-well plates (triplicates) and 35-mm dishes (duplicates) in the secondary screen and detailed characterization steps respectively. Briefly, cells were seeded to reach confluency. A day after, the medium was replaced with DMEM containing 0.1 μM Dexamethasone to synchronize cells. […] The 96-well plates were covered and bioluminescence was monitored by Synergy H1 Hybrid Multi-Mode Reader every 32 minutes. […] Bioluminescence was recorded every 10 minutes for 4-6 days. […] The first day's data was excluded from the analysis due to transient perturbations of luminescence after the medium change.
HEK 293T cells at 75-85% confluency were transfected with […] of pLV6-Bmal-luc plasmid, 9 ng of pCMV-AR8.2dvpr packaging vector and 1 ng of pCMV-VSVG envelope vector for 16 h. […] At 72-hour post-transduction, the circadian rhythms of cells monitored using Lumicycle.
We used Bmal1::dluc U2-OS and Per1::dluc NIH 3T3, and continuously monitored the bioluminescence to record circadian rhythm. […] The 96-well plates were covered and bioluminescence was monitored by Synergy H1 Hybrid Multi-Mode Reader every 32 minutes. […] Bioluminescence was recorded every 10 minutes for 4-6 days. […]

CC1(C)CCc2c(cc(OCC(=O)Nc3ccccc3C(N)=O)c3c(-c4ccccc4)cc(=O)oc23)O1 [CLK8, 2-[2-({12,12-dimethyl-4-oxo-6-phenyl-3,11-dioxatricyclo [8.4.0.0,2,7]tetradeca-1,5,7,9-tetraen-8-yl}oxy)acetamido] benzamide]
amplitude of circadian rhythm: enhance amplitude
